# Laboratory results as given in ChEMBL document CHEMBL1122295, “Modified steroid hormones. 7. 4-Fluoro-17 beta-estradiol: carbon-13 nuclear magnetic resonance, crystal and molecular structure, and biological activity” (1983).
# Where “and” joins values, the source holds several entries; their conditions need not be identical. Identical values can stand only once.
# Columns and labels:
# Type in all cases: functional
# [1] = organism: Rattus norvegicus; assay: Effect on the average tumor mass was determined in DMBA treated rats on day 150 (9 rats with tumors out of 10 rats)
# [2] = organism: Rattus norvegicus; assay: Effect on the average tumor mass was determined in DMBA treated rats on day 30 (9 rats with tumors out of 10 rats)
# [3] = organism: Rattus norvegicus; assay: Effect on the average tumor mass was determined in DMBA treated rats on day 6 (5 rats with tumors out of 10 rats)
# [4] = organism: Rattus norvegicus; assay: Effect on the average tumor mass was determined in DMBA treated rats on day 8 (4 rats with tumors out of 10 rats)
# [5] = organism: Rattus norvegicus; assay: Effect on the average tumor number was determined in DMBA treated rats on day 1 (5 rats with tumors out of 10 rats)
# [6] = organism: Rattus norvegicus; assay: Effect on the average tumor number was determined in DMBA treated rats on day 150 (9 rats with tumors out of 10 rats)
# [7] = organism: Rattus norvegicus; assay: Effect on the average tumor number was determined in DMBA treated rats on day 30 (9 rats with tumors out of 10 rats)
# [8] = organism: Rattus norvegicus; assay: Effect on the average tumor number was determined in DMBA treated rats on day 6 (5 rats with tumors out of 10 rats)
# [9] = organism: Rattus norvegicus; assay: Effect on the tumor incidence was determined in DMBA treated rats on day 1 (5 rats with tumors out of 10 rats)
# [10] = organism: Rattus norvegicus; assay: Effect on the tumor incidence was determined in DMBA treated rats on day 150 (9 rats with tumors out of 10 rats)
# [11] = organism: Rattus norvegicus; assay: Effect on the tumor incidence was determined in DMBA treated rats on day 30 (9 rats with tumors out of 10 rats)
# [12] = organism: Rattus norvegicus; assay: Effect on the tumor incidence was determined in DMBA treated rats on day 6 (5 rats with tumors out of 10 rats)
# [13] = organism: Rattus norvegicus; assay: Effect on the tumor incidence was determined in DMBA treated rats on day 8 (4 rats with tumors out of 10 rats)
# [14] = organism: Rattus norvegicus; assay: Effect on the average tumor number was determined in DMBA treated rats on day 8 (4 rats with tumors out of 10 rats)
# [15] = organism: Rattus norvegicus; assay: Effect on the average tumor mass was determined in DMBA treated rats on day 1 (5 rats with tumors out of 10 rats)
# [16] = organism: Rattus norvegicus; assay: Effect on the average tumor mass was determined in DMBA treated rats on day 30 (1 rats with tumors out of 10 rats)
# [17] = organism: Rattus norvegicus; assay: Effect on the average tumor mass was determined in DMBA treated rats on day 30 (3 rats with tumors out of 10 rats)
# [18] = organism: Rattus norvegicus; assay: Effect on the average tumor number was determined in DMBA treated rats on day 150 (2 rats with tumors out of 10 rats)
# [19] = organism: Rattus norvegicus; assay: Effect on the average tumor number was determined in DMBA treated rats on day 30 (1 rats with tumors out of 10 rats)
# [20] = organism: Rattus norvegicus; assay: Effect on the average tumor number was determined in DMBA treated rats on day 30 (3 rats with tumors out of 10 rats)
# [21] = organism: Rattus norvegicus; assay: Effect on the tumor incidence was determined in DMBA treated rats on day 150 (3 rats with tumors out of 10 rats)
# [22] = organism: Rattus norvegicus; assay: Effect on the tumor incidence was determined in DMBA treated rats on day 30 (1 rats with tumors out of 10 rats)
# [23] = organism: Rattus norvegicus; assay: Effect on the tumor incidence was determined in DMBA treated rats on day 30 (3 rats with tumors out of 10 rats)
# [24] = organism: Rattus norvegicus; assay: Effect on the average tumor mass was determined in DMBA treated rats on day 150 (2 rats with tumors out of 10 rats)
# [25] = organism: Rattus norvegicus; assay: Effect on the average tumor mass was determined in DMBA treated rats on day 150 (3 rats with tumors out of 10 rats)
# [26] = organism: Rattus norvegicus; assay: Effect on the average tumor number was determined in DMBA treated rats on day 150 (3 rats with tumors out of 10 rats)
# [27] = organism: Rattus norvegicus; assay: Effect on the tumor incidence was determined in DMBA treated rats on day 150 (2 rats with tumors out of 10 rats)
# [28] = organism: Rattus norvegicus; assay: Effect on the average tumor mass was determined in DMBA treated rats on day 30 (10 rats with tumors out of 10 rats)
# [29] = organism: Rattus norvegicus; assay: Effect on the average tumor mass was determined in DMBA treated rats on day 6 (4 rats with tumors out of 10 rats)
# [30] = organism: Rattus norvegicus; assay: Effect on the average tumor mass was determined in DMBA treated rats on day 8 (3 rats with tumors out of 10 rats)
# [31] = organism: Rattus norvegicus; assay: Effect on the average tumor number was determined in DMBA treated rats on day 150 (10 rats with tumors out of 10 rats)
# [32] = organism: Rattus norvegicus; assay: Effect on the average tumor number was determined in DMBA treated rats on day 30 (10 rats with tumors out of 10 rats)
# [33] = organism: Rattus norvegicus; assay: Effect on the average tumor number was determined in DMBA treated rats on day 6 (4 rats with tumors out of 10 rats)
# [34] = organism: Rattus norvegicus; assay: Effect on the average tumor number was determined in DMBA treated rats on day 8 (3 rats with tumors out of 10 rats)
# [35] = organism: Rattus norvegicus; assay: Effect on the tumor incidence was determined in DMBA treated rats on day 150 (10 rats with tumors out of 10 rats)
# [36] = organism: Rattus norvegicus; assay: Effect on the tumor incidence was determined in DMBA treated rats on day 30 (10 rats with tumors out of 10 rats)
# [37] = organism: Rattus norvegicus; assay: Effect on the tumor incidence was determined in DMBA treated rats on day 6 (4 rats with tumors out of 10 rats)
# [38] = organism: Rattus norvegicus; assay: Effect on the tumor incidence was determined in DMBA treated rats on day 8 (3 rats with tumors out of 10 rats)
# [39] = organism: Rattus norvegicus; assay: Effect on the average tumor mass was determined in DMBA treated rats on day 150 (10 rats with tumors out of 10 rats)
smiles,measurement,setting,value
CC(C)[C@@H]1C(=O)N2CCC[C@H]2[C@]2(O)O[C@](NC(=O)[C@@H]3C=C4c5cccc6[nH]cc(c56)C[C@H]4N(C)C3)(C(C)C)C(=O)N12.O=C(O)/C=C\C(=O)O,Tumor mass,[1],1.7 g
same,Tumor mass,[2],0.4 g
same,Tumor mass,[3],0.4 g
same,Tumor mass,[4],0.4 g
same,Tumor number,[5],1.6
same,Tumor number,[6],1.9
same,Tumor number,[7],1.3
same,Tumor number,[8],1.2
same,Total tumors,[9],8
same,Total tumors,[10],16
same,Total tumors,[11],12
same,Total tumors,[12],6
same,Total tumors,[13],5
same,Tumor number,[14],1.3
same,Tumor mass,[15],0.8 g
CC(=O)[C@H]1CC[C@H]2[C@@H]3CCC4=CC(=O)CC[C@]4(C)[C@H]3CC[C@]12C.CC(C)[C@@H]1C(=O)N2CCC[C@H]2[C@]2(O)O[C@](NC(=O)[C@@H]3C=C4c5cccc6[nH]cc(c56)C[C@H]4N(C)C3)(C(C)C)C(=O)N12.C[C@]12CC[C@@H]3c4ccc(O)c(F)c4CC[C@H]3[C@@H]1CC[C@@H]2O.O=C(O)/C=C\C(=O)O,Tumor mass,[16],0.5 g
same,Tumor mass,[17],0.3 g
same,Tumor mass,[3],0.8 g and 0.6 g
same,Tumor mass,[4],0.5 g and 0.6 g
same,Tumor number,[5],1 and 1.2
same,Tumor number,[18],2.5
same,Tumor number,[19],1
same,Tumor number,[20],1
same,Tumor number,[8],1.4
same,Total tumors,[9],5 and 6
same,Total tumors,[21],3
same,Total tumors,[22],1
same,Total tumors,[23],3
same,Total tumors,[12],7
same,Total tumors,[13],5 and 6
same,Tumor number,[14],1.3 and 1.4
same,Tumor mass,[15],0.5 g and 0.4 g
same,Tumor mass,[24],5 g
same,Tumor mass,[25],1.2 g
same,Tumor number,[26],1
same,Total tumors,[27],5
CC(=O)[C@H]1CC[C@H]2[C@@H]3CCC4=CC(=O)CC[C@]4(C)[C@H]3CC[C@]12C.CC(C)[C@@H]1C(=O)N2CCC[C@H]2[C@]2(O)O[C@](NC(=O)[C@@H]3C=C4c5cccc6[nH]cc(c56)C[C@H]4N(C)C3)(C(C)C)C(=O)N12.O=C(O)/C=C\C(=O)O,Tumor mass,[28],1.5 g
same,Tumor mass,[29],0.7 g
same,Tumor mass,[30],0.9 g
same,Tumor number,[5],1.2
same,Tumor number,[31],1.7
same,Tumor number,[32],1.5
same,Tumor number,[33],1
same,Tumor number,[34],1.3
same,Total tumors,[9],6
same,Total tumors,[35],17
same,Total tumors,[36],15
same,Total tumors,[37],4
same,Total tumors,[38],4
same,Tumor mass,[15],0.4 g
same,Tumor mass,[39],4 g
CC(C)[C@@H]1C(=O)N2CCC[C@H]2[C@]2(O)O[C@](NC(=O)[C@@H]3C=C4c5cccc6[nH]cc(c56)C[C@H]4N(C)C3)(C(C)C)C(=O)N12.C[C@]12CC[C@@H]3c4ccc(O)c(F)c4CC[C@H]3[C@@H]1CC[C@@H]2O.O=C(O)/C=C\C(=O)O,Tumor mass,[16],0.3 g
same,Tumor mass,[3],0.2 g
same,Tumor mass,[30],0.2 g
same,Tumor number,[5],1.2
same,Tumor number,[19],1
same,Tumor number,[8],1
same,Tumor number,[34],1
same,Total tumors,[9],6
same,Total tumors,[21],3
same,Total tumors,[22],1
same,Total tumors,[12],5
same,Total tumors,[38],3
same,Tumor mass,[15],0.4 g
same,Tumor mass,[25],2.7 g
same,Tumor number,[26],1
